Assay results taken from patent publication US20240174662A1, “SMALL MOLECULE INHIBITORS OF SALT INDUCIBLE KINASES” (Janssen Biotech, Inc., priority 2021, published 2024).

Molecular target: SIK2 (Homo sapiens (Human), UniProt Q9H0K1)
Experiment: SIK2 Enzymatic Assay Version 2 (High ATP)
Type: biochemical
Settings: 3 mM ATP and 200 μM HDAC5tide final, ADP-Glo Max luminescence
Outline: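 Run at room temperature; SIK2 enzyme at 6 nM (2× final) preincubated with compound 30 min before reaction. ADP formation detected by ADP-Glo Max (2 h reagent, 1 h detection) with luminescence read-out.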

SIK2, sequence (Q9H0K1 whole entry, species assumed): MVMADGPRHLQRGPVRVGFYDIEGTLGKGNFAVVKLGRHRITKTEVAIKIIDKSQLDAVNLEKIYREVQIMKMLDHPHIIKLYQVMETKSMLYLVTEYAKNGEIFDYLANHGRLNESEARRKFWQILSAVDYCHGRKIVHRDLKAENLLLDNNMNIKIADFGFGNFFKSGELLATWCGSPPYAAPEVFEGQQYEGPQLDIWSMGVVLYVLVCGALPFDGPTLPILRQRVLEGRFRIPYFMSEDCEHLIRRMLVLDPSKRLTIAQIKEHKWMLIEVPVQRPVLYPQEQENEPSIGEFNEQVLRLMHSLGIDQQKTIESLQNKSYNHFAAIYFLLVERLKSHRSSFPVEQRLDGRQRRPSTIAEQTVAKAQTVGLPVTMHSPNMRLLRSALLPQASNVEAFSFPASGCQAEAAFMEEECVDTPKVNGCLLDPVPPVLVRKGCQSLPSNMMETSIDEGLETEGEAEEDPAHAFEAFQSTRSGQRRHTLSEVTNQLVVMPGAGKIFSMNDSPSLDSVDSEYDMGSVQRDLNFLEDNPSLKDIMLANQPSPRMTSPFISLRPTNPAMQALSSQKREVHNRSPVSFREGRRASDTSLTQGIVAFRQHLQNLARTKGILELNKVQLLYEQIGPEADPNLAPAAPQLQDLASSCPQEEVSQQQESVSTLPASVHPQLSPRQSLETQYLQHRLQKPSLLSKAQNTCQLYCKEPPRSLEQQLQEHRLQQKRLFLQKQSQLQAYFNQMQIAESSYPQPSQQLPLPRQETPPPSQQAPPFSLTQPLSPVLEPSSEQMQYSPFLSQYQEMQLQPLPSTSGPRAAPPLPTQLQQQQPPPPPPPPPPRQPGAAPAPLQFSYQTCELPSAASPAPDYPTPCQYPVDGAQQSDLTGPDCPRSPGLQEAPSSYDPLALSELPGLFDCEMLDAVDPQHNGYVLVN

SMILES | IC50
CN1CCO[C@@H](COc2cnn(C)c2-c2ccn3nc(NC(=O)C4CC4)cc3c2)C1 [Example 333, N-[5-[2-methyl-4-[[(2R)-4-methylmorpholin-2-yl]methoxy]pyrazol-3-yl]pyrazolo[1,5-a]pyridin-2-yl]cyclopropanecarboxamide] | 54 nM
Cc1cnc(Nc2cc3cc(-c4c(OC[C@H]5CCN5C)cnn4C)ccn3n2)cn1 [Example 49, 5-[2-methyl-4-[[(2R)-1-methylazetidin-2-yl]methoxy]pyrazol-3-yl]-N-(5-methylpyrazin-2-yl)pyrazolo[1,5-a]pyridin-2-amine] | 5.3 nM
Cc1onc(OC[C@H](N)c2ccccc2)c1-c1ccn2nc(NC(=O)C3CC3)cc2c1 [Example 204, N-[5-[3-[(2R)-2-amino-2-phenyl-ethoxy]-5-methyl-isoxazol-4-yl]pyrazolo[1,5-a]pyridin-2-yl]cyclopropanecarboxamide] | 17.4 nM
CCn1ncc(OC[C@@H]2CCNC2)c1-c1ccn2nc(NC(=O)C3CC3)cc2c1 [Example 312, N-[5-[2-ethyl-4-[[(3R)-pyrrolidin-3-yl]methoxy]pyrazol-3-yl]pyrazolo[1,5-a]pyridin-2-yl]cyclopropanecarboxamide] | 44.3 nM
Cn1ncc(OC[C@H]2CCN2CC(C)(C)O)c1-c1ccn2nc(NC(=O)C3CC3)cc2c1 [Example 245, N-[5-[4-[[(2R)-1-(2-hydroxy-2-methyl-propyl)azetidin-2-yl]methoxy]-2-methyl-pyrazol-3-yl]pyrazolo[1,5-a]pyridin-2-yl]cyclopropanecarboxamide] | 13.7 nM
CCN1CC2(CC2)[C@H]1COc1cnn(C)c1-c1ccn2nc(NC(=O)C3CC3)cc2c1 (single isomer, unassigned) [Example 67, (*S)—N-[5-[4-[(5-ethyl-5-azaspiro[2.3]hexan-6-yl)methoxy]-2-methyl-pyrazol-3-yl]pyrazolo[1,5-a]pyridin-2-yl]cyclopropanecarboxamide] | 52.1 nM
Cc1onc(O[C@H]2CNCC2F)c1-c1ccn2nc(NC(=O)C3CC3)cc2c1 (single isomer, unassigned) [Example 210, N-(5-(3-(((3*S,4*R)-4-fluoropyrrolidin-3-yl)oxy)-5-methylisoxazol-4-yl)pyrazolo[1,5-a]pyridin-2-yl)cyclopropanecarboxamide] | 7.5 nM
CCN1CC[C@@H]1COc1cnn(C(F)F)c1-c1ccn2nc(Nc3ccnc(OC)n3)cc2c1 [Example 481, 5-[2-(difluoromethyl)-4-[[(2R)-1-ethylazetidin-2-yl]methoxy]pyrazol-3-yl]-N-(2-methoxypyrimidin-4-yl)pyrazolo[1,5-a]pyridin-2-amine] | 17.6 nM
CN[C@H](COc1noc(C)c1-c1ccn2nc(NC(=O)C3CC3)cc2c1)c1ccccn1 [Example 224, N-[5-[5-methyl-3-[(2S)-2-(methylamino)-2-(2-pyridyl)ethoxy]isoxazol-4-yl]pyrazolo[1,5-a]pyridin-2-yl]cyclopropanecarboxamide] | 21.4 nM
CN1CC[C@@H]1COc1cnn(C)c1-c1ccn2nc(NC(=O)[C@@H]3C[C@@H]3c3ccccc3)cc2c1 (mixture of isomers) [Example 473, cis-N-[5-[2-methyl-4-[(1-methylazetidin-2-yl)methoxy]pyrazol-3-yl]pyrazolo[1,5-a]pyridin-2-yl]-2-phenyl-cyclopropanecarboxamide] | 113 nM
CN1CCCC[C@@H]1COc1cnn(C)c1-c1ccn2nc(NC(=O)C3CC3)cc2c1 [Example 507, N-[5-[2-methyl-4-[[(2R)-1-methyl-2-piperidyl]methoxy]pyrazol-3-yl]pyrazolo[1,5-a]pyridin-2-yl]cyclopropanecarboxamide] | 1700 nM
CN1CC[C@H](Oc2cnn(C)c2-c2ccn3nc(Nc4cc(C(F)(F)F)cnn4)cc3c2)C1 [Example 457, 5-[2-methyl-4-[(3S)-1-methylpyrrolidin-3-yl]oxy-pyrazol-3-yl]-N-[5-(trifluoromethyl)pyridazin-3-yl]pyrazolo[1,5-a]pyridin-2-amine] | 165 nM
CCN1CC[C@@H]1COc1cnn(C)c1-c1ccn2nc(Nc3cnc(C)c(C)n3)cc2c1 [Example 22, (R)—N-(5,6-Dimethylpyrazin-2-yl)-5-(4-((1-ethylazetidin-2-yl)methoxy)-1-methyl-1H-pyrazol-5-yl)pyrazolo[1,5-a]pyridin-2-amine] | < 0.847 nM
Cc1cc(Nc2cc3cc(-c4c(OC[C@@H]5CC[C@@H]5O)cnn4C)ccn3n2)nc(C)n1 (single isomer, unassigned) [Example 448, (1*S,2*S)-2-[[5-[2-[(2,6-dimethylpyrimidin-4-yl)amino]pyrazolo[1,5-a]pyridin-5-yl]-1-methyl-pyrazol-4-yl]oxymethyl]cyclobutanol] | 115 nM
CNC1(COc2cnn(C)c2-c2ccn3nc(NC(=O)C4CC4)cc3c2)CC1 [Example 434, N-[5-[2-methyl-4-[[1-(methylamino)cyclopropyl]methoxy]pyrazol-3-yl]pyrazolo[1,5-a]pyridin-2-yl]cyclopropanecarboxamide] | 101 nM
Cc1cc(Nc2cc3cc(-c4c(OC[C@H]5CCN5)cnn4C)ccn3n2)nnc1C [Example 275, 5-[4-[[(2R)-azetidin-2-yl]methoxy]-2-methyl-pyrazol-3-yl]-N-(5,6-dimethylpyridazin-3-yl)pyrazolo[1,5-a]pyridin-2-amine] | 32.2 nM
CCN1CC[C@@H]1COc1cnn(C)c1-c1ccn2nc(Nc3ccc(C)nn3)cc2c1 [Example 68, 5-[4-[[(2R)-1-ethylazetidin-2-yl]methoxy]-2-methyl-pyrazol-3-yl]-N-(6-methylpyridazin-3-yl)pyrazolo[1,5-a]pyridin-2-amine] | < 0.847 nM
Cc1cc(Nc2cc3cc(-c4c(OC[C@H]5C[C@H](C)CN5)cnn4C)ccn3n2)nc(C)n1 [Example 446, N-(2,6-dimethylpyrimidin-4-yl)-5-[2-methyl-4-[[(2R,4S)-4-methylpyrrolidin-2-yl]methoxy]pyrazol-3-yl]pyrazolo[1,5-a]pyridin-2-amine] | 111 nM
Cc1cnc(Nc2cc3cc(-c4c(CO[C@H]5CN(C)C[C@@H]5C)cnn4C)ccn3n2)cn1 (stereo in doubt) [Example 372, Trans-*S, *R-5-[4-[(1,4-dimethylpyrrolidin-3-yl)oxymethyl]-2-methyl-pyrazol-3-yl]-N-(5-methylpyrazin-2-yl)pyrazolo[1,5-a]pyridin-2-amine] | 24.4 nM
CN1CC[C@@H]1COc1cnn(C)c1-c1ccn2nc(Nc3cnc(C(C)(C)C)cn3)cc2c1 [Example 381, N-(5-tert-butylpyrazin-2-yl)-5-[2-methyl-4-[[(2R)-1-methylazetidin-2-yl]methoxy]pyrazol-3-yl]pyrazolo[1,5-a]pyridin-2-amine] | 3.6 nM
C[C@@H]1C[C@H]1C(=O)Nc1cc2cc(-c3c(OC[C@H]4CCN4C)cnn3C)ccn2n1 [Example 14, (1R,2R)-2-methyl-N-[5-[2-methyl-4-[[(2R)-1-methylazetidin-2-yl]methoxy]pyrazol-3-yl]pyrazolo[1,5-a]pyridin-2-yl]cyclopropanecarboxamide] | 1.7 nM
CCc1cc(Nc2cc3cc(-c4c(OC[C@H]5CCN5CC)cnn4C)ccn3n2)nc(C)n1 [Example 172, 5-[4-[[(2R)-1-ethylazetidin-2-yl]methoxy]-2-methyl-pyrazol-3-yl]-N-(6-ethyl-2-methyl-pyrimidin-4-yl)pyrazolo[1,5-a]pyridin-2-amine] | < 0.847 nM
Cc1onc(O[C@@H]2CCN(C)C3(CCC3)C2)c1-c1ccn2nc(NC(=O)C3CC3)cc2c1 (single isomer, unassigned) [Example 219, (*R)—N-[5-[5-methyl-3-[(9-methyl-9-azaspiro[3.5]nonan-6-yl)oxy]isoxazol-4-yl]pyrazolo[1,5-a]pyridin-2-yl]cyclopropanecarboxamide] | 44.3 nM
Cn1ncc(OC[C@H]2CCN2CC2CC2)c1-c1ccn2nc(NC(=O)C3CC3)cc2c1 [Example 247, N-[5-[4-[[(2R)-1-(cyclopropylmethyl)azetidin-2-yl]methoxy]-2-methyl-pyrazol-3-yl]pyrazolo[1,5-a]pyridin-2-yl]cyclopropanecarboxamide] | 2.7 nM
Cc1cc(Nc2cc3cc(-c4c(OC[C@H]5COC6(CCCC6)O5)cnn4C)ccn3n2)nc(C)n1 (single isomer, unassigned) [Example 299, (*S)—N-(2,6-dimethylpyrimidin-4-yl)-5-[4-(6,9-dioxaspiro[4.4]nonan-8-ylmethoxy)-2-methyl-pyrazol-3-yl]pyrazolo[1,5-a]pyridin-2-amine] | 31.1 nM
Cc1cc(Nc2cc3cc(-c4c(CO[C@@H]5CN(C)C[C@@H]5C)cnn4C)ccn3n2)nc(C)n1 (stereo in doubt) [Example 369, CIS—*S, *S—N-(2,6-dimethylpyrimidin-4-yl)-5-[4-[(1,4-dimethylpyrrolidin-3-yl)oxymethyl]-2-methyl-pyrazol-3-yl]pyrazolo[1,5-a]pyridin-2-amine] | 2 nM
Cc1cc(Nc2cc3cc(-c4c(OC[C@H]5CCN5C)cnn4C)ccn3n2)nc(C2CC2)n1 [Example 144, N-(2-cyclopropyl-6-methyl-pyrimidin-4-yl)-5-[2-methyl-4-[[(2R)-1-methylazetidin-2-yl]methoxy]pyrazol-3-yl]pyrazolo[1,5-a]pyridin-2-amine] | < 0.847 nM
Cc1cc(Nc2cc3cc(-c4c(OC[C@H]5CCN5C)cnn4C)ccn3n2)nnc1C [Example 17, N-(5,6-Dimethylpyridazin-3-yl)-5-[2-methyl-4-[[(2R)-1-methylazetidin-2-yl]methoxy]pyrazol-3-yl]pyrazolo[1,5-a]pyridin-2-amine] | < 0.847 nM
CN1C[C@@H](C(F)(F)F)[C@@H]1COc1cnn(C)c1-c1ccn2nc(NC(=O)C3CC3)cc2c1 [Example 10, N-[5-[2-methyl-4-[[(2R,3R)-1-methyl-3-(trifluoromethyl)azetidin-2-yl]methoxy]pyrazol-3-yl]pyrazolo[1,5-a]pyridin-2-yl]cyclopropanecarboxamide] | 988 nM
COc1cc(Nc2cc3cc(-c4c(OC[C@H]5CCN5C)cnn4C)ccn3n2)cc(OC)c1C(=O)NC(C)C [Example 37, N-isopropyl-2,6-dimethoxy-4-[[5-[2-methyl-4-[[(2R)-1-methylazetidin-2-yl]methoxy]pyrazol-3-yl]pyrazolo[1,5-a]pyridin-2-yl]amino]benzamide] | 42.9 nM
